Assay results from patent publication US8895761B2, “4-phenylpyrane-3,5-diones, 4-phenylthiopyrane-3,5-diones and 2-phenylcyclohexane-1,3,5-triones as herbicides” (Syngenta Limited, priority 2007, dated 2014).

Experiments:
Assay type in all cases: in vivo
[1] = system: Avena fatua (AVEFA); assay: Post-emergence herbicidal glasshouse test, Avena fatua; details: Avena fatua, 312 h, rate 250 g/ha, evaluated after 13 days, scale 100 = total damage to plant, 0 = no damage
Description: (§1) Seeds of a variety of test species were sown in standard soil in pots. After cultivation for one day (pre-emergence) or after 8 days cultivation (post-emergence) under controlled conditions in a glasshouse (at 24/16° C., day/night; 14 hours light; 65% humidity), the plants were sprayed with an aqueous spray solution derived from the formulation of the technical active ingredient in acetone/water (50:50) solution containing 0.5% Tween 20 (polyoxyethelyene sorbitan monolaurate, CAS RN 9005-64-5). The test plants were then grown in a glasshouse under controlled conditions in a glasshouse (at 24/16° C., day/night; 14 hours light; 65% humidity) and watered twice daily. After 13 days for pre and post-emergence, the test was evaluated ([…] to plant; 0=no damage to plant).
(§2) Setaria faberi (SETFA), Lolium perenne (LOLPE), Alopecurus myosuroides (ALOMY), Echinochloa crus-galli (ECHCG) and Avena fatua (AVEFA).

[2] = system: Alopecurus myosuroides (ALOMY); assay: Post-emergence herbicidal glasshouse test, Alopecurus myosuroides; details: Alopecurus myosuroides, 312 h, rate 250 g/ha, evaluated after 13 days, scale 100 = total damage to plant, 0 = no damage
Description: as §1, §2

[3] = system: Echinochloa crus-galli (ECHCG); assay: Post-emergence herbicidal glasshouse test, Echinochloa crus-galli; details: Echinochloa crus-galli, 312 h, rate 250 g/ha, evaluated after 13 days, scale 100 = total damage to plant, 0 = no damage
Description: as §1, §2

[4] = system: Lolium perenne (LOLPE); assay: Pre-emergence herbicidal glasshouse test, Lolium perenne; details: 312 h, rate 250 g/ha, evaluated after 13 days, scale 100 = total damage to plant, 0 = no damage
Description: as §1, §2

[5] = system: Avena fatua (AVEFA); assay: Pre-emergence herbicidal glasshouse test, Avena fatua; details: Avena fatua, 312 h, rate 250 g/ha, evaluated after 13 days, scale 100 = total damage to plant, 0 = no damage
Description: as §1, §2

[6] = system: Lolium perenne (LOLPE); assay: Post-emergence herbicidal glasshouse test, Lolium perenne; details: 312 h, rate 250 g/ha, evaluated after 13 days, scale 100 = total damage to plant, 0 = no damage
Description: as §1, §2

[7] = system: Alopecurus myosuroides (ALOMY); assay: Pre-emergence herbicidal glasshouse test, Alopecurus myosuroides; details: Alopecurus myosuroides, 312 h, rate 250 g/ha, evaluated after 13 days, scale 100 = total damage to plant, 0 = no damage
Description: as §1, §2

[8] = system: Echinochloa crus-galli (ECHCG); assay: Pre-emergence herbicidal glasshouse test, Echinochloa crus-galli; details: Echinochloa crus-galli, 312 h, rate 250 g/ha, evaluated after 13 days, scale 100 = total damage to plant, 0 = no damage
Description: as §1, §2

Row | SMILES | pest or weed control at 250 g/ha [1] | pest or weed control at 250 g/ha [2] | pest or weed control at 250 g/ha [3] | pest or weed control at 250 g/ha [4] | pest or weed control at 250 g/ha [5] | pest or weed control at 250 g/ha [6] | pest or weed control at 250 g/ha [7] | pest or weed control at 250 g/ha [8]
1 | CCc1cc(-c2ccc(Cl)c(Cl)c2)ccc1C1=C(O)C(C)(C)OC(C)(C)C1=O [Compound A-38] | 50% | 80% | 80% | 70% | 0% | 70% | 0% | 50%
2 | CCc1cc(-c2cc(Cl)cc(Cl)c2)ccc1C1=C(O)C(C)(C)OC(C)(C)C1=O [Compound A-99] | 90% | 90% | 100% | 60% | 0% | 90% | 10% | 30%
3 | CCc1cc(-c2cc(F)c(F)cc2F)ccc1C1=C(O)C(C)(CC)OC(C)(C)C1=O (stereo not shown) [Compound A-122] | 30% | 90% | 70% | 0% | 0% | 70% | 20% | 10%
4 | CCc1cc(-c2ccc(F)c(OC)c2)ccc1C1=C(O)C(C)(C)S(=O)(=O)C(C)(C)C1=O [Compound B-16] | 80% | 50% | 80% | 40% | 30% | 60% | 20% | 40%
5 | CCc1cc(-c2ccc(Cl)c(F)c2)ccc1C1=C(O)C(C)(C)OC(C)(C)C1=O [Compound A-42] | 80% | 90% | 100% | 90% | 20% | 90% | 10% | 90%
6 | CCc1cc(-c2cc(F)c(F)c(F)c2)ccc1C1=C(O)C2(CCCC2)OC(C)(C)C1=O [Compound A-126] | 20% | 40% | 70% | 10% | 0% | 40% | 10% | 10%
7 | CCc1cc(-c2ccc(F)c(F)c2)ccc1C1=C(O)C(C)(COC)OC(C)(C)C1=O (stereo not shown) [Compound A-113] | 90% | 100% | 100% | 100% | 90% | 100% | 100% | 100%
8 | CCc1cc(-c2cc(F)c(F)c(F)c2)ccc1C1=C(O)C(C)(CC)OC(C)(C)C1=O (stereo not shown) [Compound A-120] | 100% | 100% | 100% | 90% | 40% | 100% | 60% | 70%
9 | CCc1cc(-c2cc(F)c(F)c(F)c2)ccc1C1=C(O)C(C)(C)SC(C)(C)C1=O [Compound B-6] | 90% | 90% | 80% | 50% | 0% | 80% | 50% | 0%
10 | CCc1cc(-c2ccc(F)cc2)ccc1C1=C(OC(=O)C(C)(C)C)C(C)OC(C)(C)C1=O [Compound D-9] | 10% | 70% | 80% | 90% | 0% | 80% | 60% | 50%
11 | CCc1cc(-c2ccc(F)c(OC)c2)ccc1C1=C(O)C(C)(CC)OC(C)(C)C1=O (stereo not shown) [Compound A-118] | 80% | 60% | 90% | 90% | 0% | 80% | 20% | 40%
